# Experiments:
# [1] = biological target: T1, cloned recombinant human HDAC-1 (Homo sapiens, UniProt Q13547); assay: Human HDAC-1 Assay 1: [3H]-acetylated histone deacetylase assay; format: biochemical; conditions: Assay 1, unbracketed data; [3H]-acetylated histone substrate, 10 min at 37° C.
# T1 construct: made in house; host or cells: Baculovirus insect cell expression system
# Method: HDAC inhibitors were screened against a cloned recombinant human HDAC-1 enzyme expressed and purified from a Baculovirus insect cell expression system. For deacetylase assays, 20,000 cpm of the [^3H]-metabolically labeled acetylated histone substrate (M. Yoshida et al., J. Biol. Chem. 265(28): 17174–17179 (1990)) was incubated with 30 μg of the cloned recombinant hHDAC-1 for 10 minutes at 37° C. The reaction was stopped by adding acetic acid (0.04 M, final concentration) and HCl (250 mM, final concentration). […] For inhibition studies, the enzyme was preincubated with compounds at 4° C. for 30 minutes prior to initiation of the enzymatic assay. IC50 values for HDAC enzyme inhibitors were determined by performing dose response curves with individual compounds and determining the concentration of inhibitor producing fifty percent of the maximal inhibition. IC50 values for representative compounds assayed using this procedure are presented in the third column of Tables 7–10 (excepting bracketed data).
# HCT116 cells = assay: MTT assay; format: cell-based; conditions: Homo sapiens, HCT-116, 72 hours
# Method: HCT116 cells (2000/well) were plated into 96-well tissue culture plates one day before compound treatment. Compounds at various concentrations were added to the cells. The cells were incubated for 72 hours at 37° C. in 5% CO2 incubator. MTT (3-[4,5-dimethylthiazol-2-yl]-2,5 diphenyl tetrazolium bromide, Sigma) was added at a final concentration of 0.5 mg/ml and incubated with the cells for 4 hours before one volume of solubilization buffer (50% N,N-dimethylformamide, 20% SDS, pH 4.7) was added onto the cultured cells. After overnight incubation, solubilized dye was quantified by colorimetric reading at […] using a reference at […] using an MR700 plate reader (Dynatech Laboratories Inc.). OD values were converted to cell numbers according to a standard growth curve of the relevant cell line. The concentration which reduces cell numbers to 50% of that of solvent treated cells is determined as MTT IC50. IC50 values for representative compounds are presented in the fourth column of Tables 7–10.
# [2] = system: acetylated histone H-4 in T24 human bladder cancer cells; assay: Histone H4 acetylation in whole cells by immunoblots; format: cell-based; conditions: 16 h, immunoblot densitometry, read-out: H4 Ac (T24) EC50
# Method: T24 human bladder cancer cells growing in culture were incubated with HDAC inhibitors for 16 h. Histones were extracted from the cells after the culture period as described by M. Yoshida et al. (J. Biol. Chem. 265(28): 17174–17179 (1990)). […] of total histone protein was loaded onto SDS/PAGE and transferred to nitrocellulose membranes. Membranes were probed with polyclonal antibodies specific for acetylated histone H-4 (Upstate Biotech Inc.), followed by horse radish peroxidase conjugated secondary antibodies (Sigma). Enhanced Chemiluminescence (ECL) (Amersham) detection was performed using Kodak films (Eastman Kodak). Acetylated H-4 signal was quantified by densitometry. Representative data are presented in the fifth column of Table 7–10. Data are presented as the concentration effective for […] the acetylated H-4 signal by 50% (EC50).
# T1 sequence (Q13547 whole entry): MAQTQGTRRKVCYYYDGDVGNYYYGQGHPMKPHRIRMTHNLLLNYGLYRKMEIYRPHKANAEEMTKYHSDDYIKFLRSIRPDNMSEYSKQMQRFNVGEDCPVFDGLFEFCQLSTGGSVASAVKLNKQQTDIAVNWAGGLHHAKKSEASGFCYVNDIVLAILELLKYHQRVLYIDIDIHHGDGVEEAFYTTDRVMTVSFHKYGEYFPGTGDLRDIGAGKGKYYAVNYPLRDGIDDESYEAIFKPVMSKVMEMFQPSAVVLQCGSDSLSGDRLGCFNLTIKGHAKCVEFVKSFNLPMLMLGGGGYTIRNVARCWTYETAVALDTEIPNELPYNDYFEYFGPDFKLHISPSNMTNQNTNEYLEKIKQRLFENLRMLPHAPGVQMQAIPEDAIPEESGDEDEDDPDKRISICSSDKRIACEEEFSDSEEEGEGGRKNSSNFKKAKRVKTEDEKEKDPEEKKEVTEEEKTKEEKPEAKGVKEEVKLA
SMILES,IC50 [1],IC50 (HCT116 cells),EC50 [2]
"COc1cc(CNC(=O)/C=C/c2ccc(C(=O)Nc3ccccc3N)cc2)cc(OC)c1OC [Vc, N-(2-Amino-phenyl)-4-[2-(3,4,5-trimethoxy-benzylcarbamoyl)-vinyl]-benzamide]",3000 nM,900 nM,2000 nM
"Nc1ccccc1NC(=O)c1ccc(C(=O)/C=C/c2ccc(Cl)cc2)cc1 [Ie, N-(2-Amino-phenyl)-4-[3-(4-chloro-phenyl)-acryloyl]-benzamide]",6000 nM,9000 nM,–
"Nc1ccccc1NC(=O)c1ccc(/C=C/CNCc2cccnc2)cc1 [XVh, N-(2-Amino-phenyl)-4-{3-[(pyridin-3-ylmethyl)-amino]propenyl}-benzamide]",4000 nM,700 nM,2000 nM
"COc1cc(NC/C=C/c2ccc(C(=O)Nc3ccccc3N)cc2)cc(OC)c1OC [XVb, N-(2-Amino-phenyl)-4[3-(3,4,5-trimethoxy-phenylamino)-propenyl]-benzamide]",4000 nM,100 nM,3000 nM
"Nc1ccccc1NC(=O)c1ccc(/C=C/CN2CCN(Cc3ccccc3)CC2)cc1 [XXXb, N-(2-Amino-phenyl)-4-[3-(4-benzyl-piperazin-1-yl)-propenyl]-benzamide]",4000 nM,1000 nM,2000 nM
"COc1cc(OC)c(/C=C/C(=O)c2ccc(C(=O)Nc3ccccc3N)cc2)c(OC)c1 [If, N-(2-Amino-phenyl)-4-[3-(2,4,6-trimethoxy-phenyl)-acryloyl]-benzamide]",4000 nM,5000 nM,–
"Nc1ccccc1NC(=O)c1ccc(/C=C/C(=O)NCCOc2ccccc2)cc1 [Vd, N-(2-Amino-phenyl)-4-[2-(2-phenoxy-ethylcarbamoyl)-vinyl]-benzamide]",1000 nM,400 nM,1000 nM
"COc1cc(C)nc(NC/C=C/c2ccc(C(=O)Nc3ccccc3N)cc2)n1 [XVd, N-(2-Amino-phenyl)-4-[3-(4-methoxy-6-methyl-pyrimidin-2-ylamino)-propenyl]-benzamide]",4000 nM,300 nM,3000 nM
"Cc1ccc(S(=O)(=O)NC/C=C/c2ccc(C(=O)Nc3ccccc3N)cc2)cc1 [XVg, N-(2-Amino-phenyl)-4-[3-(4-tolyl-sulfonylamino)-propenyl]-benzamide]",12000 nM,5000 nM,–
"COc1cccc(C(=O)/C=C/c2ccc(C(=O)Nc3ccccc3N)cc2)c1 [XXIVd, N-(2-Amino-phenyl)-4-[3-(3-methoxy-phenyl)-3-oxo-propenyl]-benzamide]",4000 nM,300 nM,< 5000 nM
"Nc1ccccc1NC(=O)c1ccc(/C=C/CNc2nc3ccccc3s2)cc1 [XVc, N-(2-Amino-phenyl)-4-[3-(benzothiazol-2-ylamino)-propenyl]-benzamide]",800 nM,1000 nM,< 1000 nM
"Nc1ccccc1NC(=O)c1ccc(/C=C/C(=O)N2CCN(c3ccccn3)CC2)cc1 [Vm, N-(2-Amino-phenyl)-4-[3-oxo-3-(4-pyridin-2-yl-piperazin-1-yl)-propenyl]-benzamide]",11000 nM,6000 nM,–
"CC(C)(C)OC(=O)N(C/C=C/c1ccc(C(=O)Nc2ccccc2N)cc1)Cc1cccnc1 [XXIIh, t-Butyl {3-[4-(2-amino-phenylcarbamoyl)-phenyl]-ally}-pyridin-3-ylmethyl-carbamate]",3000 nM,3000 nM,–
"Nc1ccccc1NC(=O)c1ccc(/C=C/C(=O)N2CCCC2c2cccnc2)cc1 (racemic) [Vl, (rac)-N-(2-Amino-phenyl)-4-[3-oxo-3-(2-pyridin-3-yl-pyrrolidin-1-yl)-propenyl]-benzamide]",12000 nM,4000 nM,–
"COc1ccc(C2CCN(C(=O)/C=C/c3ccc(C(=O)Nc4ccccc4N)cc3)CC2)cc1OC [Vk, N-(2-Amino-phenyl)-4-{3-[4-(3,4-dimethoxy-phenyl)-piperidin-1-yl]-3-oxo-propenyl}-benzamide]",13000 nM,2000 nM,–
"Nc1ccccc1NC(=O)c1ccc(/C=C/C(=O)OCc2cccnc2)cc1 [Vg, Pyridin-3-ylmethyl 3-[4-(2-amino-phenylcarbamoyl)-phenyl]-acrylic ester]",10000 nM,5000 nM,–

# Further lines, results first:
IC50 [1],IC50 (HCT116 cells),EC50 [2],SMILES
15000 nM,4000 nM,–,"Nc1ccccc1NC(=O)c1ccc(/C=C/C(=O)N(Cc2cccnc2)Cc2cccnc2)cc1 [Vo, N-(2-Amino-phenyl)-4-[2-(bis-pyridin-3-ylmethyl-carbamoyl)-vinyl]-benzamide]"
2000 nM,900 nM,5000 nM,"Nc1ccccc1NC(=O)c1ccc(C(=O)/C=C/c2cccnc2)cc1 [Ib, N-(2-Amino-phenyl)-4-(3-pyridin-3-yl-acryloyl)-benzamide]"
13000 nM,2000 nM,–,"Nc1ccccc1NC(=O)c1ccc(/C=C/C(=O)N[C@H]2c3ccccc3C[C@H]2O)cc1 [Vp, (−)-(1S,2R)-N-(2-Amino-phenyl)-4-[2-(2-hydroxy-indan-1-ylcarbamoyl)-vinyl]-benzamide]"
2000 nM,600 nM,–,"Nc1ccccc1NC(=O)c1ccc(CCCc2ccccc2)cc1 [XXIXa, N-(2-Amino-phenyl)-4-(3-phenyl-propyl)-benzamide]"
13000 nM,600 nM,5000 nM,"COc1ccc(C(=O)/C=C/c2ccc(C(=O)Nc3ccccc3N)cc2)cc1 [XXIVc, N-(2-Amino-phenyl)-4-[3-(4-methoxy-phenyl)-3-oxo-propenyl]-benzamide]"
3000 nM,1000 nM,3000 nM,"Nc1ccccc1NC(=O)c1ccc(C(=O)/C=C/c2cc(F)ccc2F)cc1 [Ii, N-(2-Amino-phenyl)-4-[3-(2,5-difluoro-phenyl)-acryloyl]-benzamide]"
1000 nM,1000 nM,4000 nM,"COc1ccc(NC/C=C/c2ccc(C(=O)Nc3ccccc3N)cc2)cc1OC [XVi, N-(2-Amino-phenyl)-4-[3-(3,4-dimethoxy-phenylamino)-propenyl]-benzamide]"
3000 nM,1000 nM,2000 nM,CC(=O)c1cc2c(cc1NC/C=C/c1ccc(C(=O)Nc3ccccc3N)cc1)OCO2 [XVf]
4000 nM,1000 nM,3000 nM,"Nc1ccccc1NC(=O)c1ccc(/C=C/C(=O)NCCc2ccccn2)cc1 [Vi, N-(2-Amino-phenyl)-4-[2-(2-pyridin-2-yl-ethylcarbamoyl)-vinyl]-benzamide]"
5000 nM,3000 nM,–,"COc1cc(NC(=O)/C=C/c2ccc(C(=O)Nc3ccccc3N)cc2)cc(OC)c1OC [Va, N-(2-Amino-phenyl)-4-[2-(3,4,5-trimethoxy-phenylcarbamoyl)-vinyl]-benzamide]"
3000 nM,600 nM,3000 nM,"COc1cc(/C=C/C(=O)c2ccc(C(=O)Nc3ccccc3N)cc2)cc(OC)c1OC [Id, N-(2-Amino-phenyl)-4-[3-(3,4,5-trimethoxy-phenyl)-acryloyl]-benzamide]"
1000 nM,300 nM,1000 nM,"Nc1ccccc1NC(=O)c1ccc(/C=C/C(=O)NCCc2c[nH]c3ccccc23)cc1 [Vj, N-(2-Amino-phenyl)-4-{2-[2-(1H-indol-3-yl)-ethylcarbamoyl]-vinyl}-benzamide]"
3000 nM,70 nM,1000 nM,"Nc1ccccc1NC(=O)c1ccc(/C=C/C(=O)NCc2cccnc2)cc1 [Vb, N-(2-Amino-phenyl)-4-{2-[(pyridin-3-ylmethyl)-carbamoyl]-vinyl}-benzamide]"
20000 nM,6000 nM,–,"Nc1ccccc1NC(=O)c1ccc(/C=C/C(=O)N2CCOCC2)cc1 [Ve, N-(2-Amino-phenyl)-4-(3-morpholin-4-yl-3-oxo-propenyl)-benzamide]"
7000 nM,3000 nM,–,"N#CCCN(Cc1cccnc1)C(=O)/C=C/c1ccc(C(=O)Nc2ccccc2N)cc1 [Vn, N-(2-Amino-phenyl)-4-{2-[(2-cyano-ethyl)-pyridin-3-ylmethyl-carbamoyl]-vinyl}-benzamide]"
5000 nM,1000 nM,–,"Nc1ccccc1NC(=O)c1ccc(C(=O)/C=C/c2ccc(Cl)c(Cl)c2)cc1 [Ia, N-(2-Amino-phenyl)-4-[3-(3,4-dichloro-phenyl)-acryloyl]-benzamide]"
